The source of these data is US6914151B1, “Crystallization processes for the formation of stable crystals of aspartame derivative” (Ajinomoto Co., Inc., priority 1998, dated 2005).

The nature of data set [1]: Stability test at 70° C. of crystals (remaining ratio of N-(3,3-dimethylbutyl)-APM). Format: physicochemical. As to the method:
The resulting G-type crystals and A-type crystals of N-(3,3-dimethylbutyl)-APM were tested at 70° C., concerning their stability. […] The relationship between the storage time and the remaining ratio of N-(3,3-dimethylbutyl)-APM in this test will be shown below in Table 1.

The conditions of data set [2]: on the weight basis, cited from earlier work.

Take `COC(=O)[C@H](Cc1ccccc1)NC(=O)[C@H](CC(=O)O)NCCC(C)(C)C` [A, N-[N-(3,3-dimethylbutyl)-L-α-aspartyl]-L-phenylalanine methyl ester]: the Remaining ratio in data set [1] (time elapsed 0 hrs) came out at 95 wt. %; in data set [1] (time elapsed 52 hrs) it was 95 wt. %; in data set [1] (time elapsed 160 hrs), 94 wt. %; in data set [1] (time elapsed 160 hrs, listed as A-type crystals) it was 94 wt. %.

Take `COC(=O)[C@H](Cc1ccccc1)NC(=O)[C@H](CC(=O)O)NCCC(C)(C)C` [G, N-[N-(3,3-dimethylbutyl)-L-α-aspartyl]-L-phenylalanine methyl ester, reference compound]: the Remaining ratio was 96 wt. % in data set [1] (time elapsed 0 hrs); 87 wt. % in data set [1] (time elapsed 52 hrs); 34 wt. % in data set [1] (time elapsed 160 hrs); 34 wt. % in data set [1] (time elapsed 160 hrs, listed as G-type crystals).

With `COC(=O)[C@H](Cc1ccccc1)NC(=O)[C@H](CC(=O)O)NCCC(C)(C)C` [N-(3,3-dimethylbutyl)-ATM, N-[N-(3,3-dimethylbutyl)-L-α-aspartyl]-L-phenylalanine methyl ester], the “sweetening potency relative to aspartame” value in data set [2] (times that of aspartame) was “at least 50 times”. For the same compound, in data set [2] (times that of sucrose (table sugar)), the “sweetening potency relative to sucrose” value is given as “about 10,000 times”.
